# Where “and” joins values, the source holds several entries; their conditions need not be identical. Identical values can stand only once. Counter-ions that a name gives are not always drawn. Like-named read-outs stand apart in the source and are kept apart here.
# Assays:
# Format in all cases: cell-based
# GluN1/GluN2B receptors = target: T1, GluN1/GluN2B receptors (Rattus norvegicus, UniProt P35439+Q00960); test: Whole-cell patch-clamp of GluN1/GluN2B receptor responses in transfected HEK293 cells
# T1 construct: expressed in transfected cells; host or cells: HEK293
# Source text: (§1) Human embryonic kidney (HEK293) cells were transfected with expression vectors containing: GluN1–1a (GenBank accession number U08261)[52]; GluN2B (GenBank accession number M91562); GluN1-4a(F484A), (generous gift from Dr. J. J. Woodward)[53] (Smothers & Woodward, 2009); GluN3A (generous gift from Dr. S. A. Lipton)[54] (GenBank accession number NM_138546); GluN1ΔN with deleted 354 amino acids in the NTD (32 to 386); GluN1ΔC with an introduced stop codon in 838 of the CTD GluN2BΔN) with deleted 354 amino acids in the NTD (32 to 386); GluN2BΔC with an introduced stop codon in 844 of the CTD[55]; GluR0 (GenBank accession number Synechocystis PCC 6803) (generous gift from Dr. M. L. Mayer)[18]; and green fluorescent protein (GFP) (pQBI 25, Takara, Tokyo, Japan) genes, as described previously. The Quick-Change site-directed mutagenesis kit (Agilent Technologies, Santa Clara, CA, USA) was used to generate specific point mutations in the M1/M3 region according to the manufacturer’s instructions using manually designed primers purchased from Sigma. Modified DNA plasmids were transformed into competent XL10-Gold E.coli cells, positive clones were selected, and isolated DNA was sequenced. […] All mutations were verified by DNA sequencing (Macrogen, Seoul, Korea or SeQme, Dobris, Czech Republic). The amino acids are numbered according to the full-length protein, including the signal peptide, with the initiating methionine as 1.
# (§2) Experiments were performed 24–48 hrs after transfection on cells transfected with GluN1/GluN2B/GFP plasmids. Whole-cell voltage-clamp recordings from HEK293 cells were made with a patch-clamp amplifier (Axopatch 200B; Axon Instruments, Inc., Foster City, CA) after a capacitance and series resistance (<10 MΩ) compensation of 80–90%.
# (§3) Patch pipettes (3–5 MΩ) were filled with a solution containing (in mM): 120 gluconic acid, 15 CsCl, 10 BAPTA, 10 HEPES, 3 MgCl2, 1 CaCl2, and 2 ATP-Mg salt (pH-adjusted to 7.2 with CsOH). When GluR0 receptor responses were studied, intracellular solution contained (in mM): 120 gluconic acid, 15 KCl, 10 BAPTA, 10 HEPES, 3 MgCl2, 1 CaCl2, and 2 ATP-Mg salt (pH-adjusted to 7.2 with KOH). Extracellular solution (ECS) contained the following (in mM): 160 NaCl, 2.5 KCl, 10 HEPES, 10 glucose, 0.2 EDTA, and 0.7 CaCl2 (pH-adjusted to 7.3 with NaOH). Glycine (10 μM), an NMDAR co-agonist, was present in the control and test solutions. All (PA-S and PA-A) solutions were made from freshly prepared 20 mM PA-S and 5 mM PA-A stock in dimethyl sulfoxide (DMSO). The final dilution to ECS was made at 50 °C and followed by 1 min sonication (SONOREX DIGITEC DT 100/H, BADELIN electronic, Berlin, Germany). The same concentration of DMSO was added to all extracellular solutions. Drug applications were made with a microprocessor-controlled multibarrel fast-perfusion system. Changes in the glutamate-induced current in HEK293 cells transfected by GluN1/GluN2B subunits were used to estimate the rate of solution exchange around the cell. Standard ECS was switched to the ECS diluted by water (50%) during glutamate application. The osmolarity was adjusted by sucrose to match the standard ECS. Glutamate (1 mM), glycine (10 μM) and pH was maintained constant in both solutions. The solution exchange rate was estimated to be τ = 4.3 ± 0.3 ms (n = 6) for lifted cells and τ = 12.0 ± 0.9 ms (n = 6) for the attached cells.
# Experiments were performed at room temperature (21–25 °C). Data were collected (low-pass filtered at 2 kHz and sampled at 10 kHz) and analyzed using pClamp 10 (Molecular Devices). Unless otherwise mentioned, error bars represent SEM; statistical comparison of groups was performed using Student’s t-test (p < 0.05 was used to determine the significance).
# (§4) The IC50 was determined from a single dose of a steroid using the formula [drawing 1] where I is the relative degree of inhibition and [steroid] is the steroid concentration used. […]
# [1] = target: T2, GluN1-4a(F484A)/eGFP-GluN3A receptor (Rattus norvegicus, UniProt P35439+Q9R1M7, F484A); test: Whole-cell patch-clamp of glycine-activated GluN1-4a(F484A)/eGFP-GluN3A receptor responses in HEK293 cells
# T2 construct: eGFP; expressed in transfected cells; host or cells: HEK293
# Source text: (§5) Human embryonic kidney (HEK293) cells were transfected with expression vectors containing: GluN1–1a (GenBank accession number U08261)[52]; GluN2B (GenBank accession number M91562); GluN1-4a(F484A), (generous gift from Dr. J. J. Woodward)[53] (Smothers & Woodward, 2009); GluN3A (generous gift from Dr. S. A. Lipton)[54] (GenBank accession number NM_138546); GluN1ΔN with deleted 354 amino acids in the NTD (32 to 386); GluN1ΔC with an introduced stop codon in 838 of the CTD GluN2BΔN) with deleted 354 amino acids in the NTD (32 to 386); GluN2BΔC with an introduced stop codon in 844 of the CTD[55]; GluR0 (GenBank accession number Synechocystis PCC 6803) (generous gift from Dr. M. L. Mayer)[18]; and green fluorescent protein (GFP) (pQBI 25, Takara, Tokyo, Japan) genes, as described previously. The Quick-Change site-directed mutagenesis kit (Agilent Technologies, Santa Clara, CA, USA) was used to generate specific point mutations in the M1/M3 region according to the manufacturer’s instructions using manually designed primers purchased from Sigma. Modified DNA plasmids were transformed into competent XL10-Gold E.coli cells, positive clones were selected, and isolated DNA was sequenced. […]
# as §4
# GluN1ΔC/GluN2BΔC = target: T3, GluN1ΔC/GluN2BΔC (Rattus norvegicus, UniProt P35439+Q00960); test: Whole-cell patch-clamp of C-terminal truncated NMDARs in HEK293 cells
# T3 construct: expressed in transfected cells; host or cells: HEK293
# Source text: as §5, §4
# [2] = target: T4, GluN1(T648A)/GluN2B receptors (Rattus norvegicus, UniProt P35439+Q00960, T648A); test: Whole-cell patch-clamp of GluN1(T648A)/GluN2B receptor responses in HEK293 cells; settings: for inhibition at 200 µM: HEK293, PA-S 200 μM
# T4 construct: expressed in transfected cells; host or cells: HEK293
# Source text: as §1, §2, §3
# The IC50 was determined from a single dose of a steroid using the formula [drawing 1] where I is the relative degree of inhibition and [steroid] is the steroid concentration used. Calculations of IC50 were made assuming 100% inhibition at saturating steroid concentration this is valid for both PA-S and PA-A[12][13]. […]
# GluN2B(Y646A) = target: T5, GluN2B(Y646A) (Rattus norvegicus, UniProt P35439+Q00960, Y646A); test: Whole-cell patch-clamp of GluN1/GluN2B(Y646A) receptor responses in HEK293 cells
# T5 construct: expressed in transfected cells; host or cells: HEK293
# Source text: as §5, §4
# [3] = 150 μM PA-S co-applied with 1 mM glutamate, 10 μM glycine, attached HEK293 cells
# [4] = lifted HEK293 cells, 150 μM PA-S co-application with glutamate
# [5] = lifted HEK293 cells, 150 μM PA-S wash
# T2 sequence (Q9R1M7 24-1135, other chains not shown): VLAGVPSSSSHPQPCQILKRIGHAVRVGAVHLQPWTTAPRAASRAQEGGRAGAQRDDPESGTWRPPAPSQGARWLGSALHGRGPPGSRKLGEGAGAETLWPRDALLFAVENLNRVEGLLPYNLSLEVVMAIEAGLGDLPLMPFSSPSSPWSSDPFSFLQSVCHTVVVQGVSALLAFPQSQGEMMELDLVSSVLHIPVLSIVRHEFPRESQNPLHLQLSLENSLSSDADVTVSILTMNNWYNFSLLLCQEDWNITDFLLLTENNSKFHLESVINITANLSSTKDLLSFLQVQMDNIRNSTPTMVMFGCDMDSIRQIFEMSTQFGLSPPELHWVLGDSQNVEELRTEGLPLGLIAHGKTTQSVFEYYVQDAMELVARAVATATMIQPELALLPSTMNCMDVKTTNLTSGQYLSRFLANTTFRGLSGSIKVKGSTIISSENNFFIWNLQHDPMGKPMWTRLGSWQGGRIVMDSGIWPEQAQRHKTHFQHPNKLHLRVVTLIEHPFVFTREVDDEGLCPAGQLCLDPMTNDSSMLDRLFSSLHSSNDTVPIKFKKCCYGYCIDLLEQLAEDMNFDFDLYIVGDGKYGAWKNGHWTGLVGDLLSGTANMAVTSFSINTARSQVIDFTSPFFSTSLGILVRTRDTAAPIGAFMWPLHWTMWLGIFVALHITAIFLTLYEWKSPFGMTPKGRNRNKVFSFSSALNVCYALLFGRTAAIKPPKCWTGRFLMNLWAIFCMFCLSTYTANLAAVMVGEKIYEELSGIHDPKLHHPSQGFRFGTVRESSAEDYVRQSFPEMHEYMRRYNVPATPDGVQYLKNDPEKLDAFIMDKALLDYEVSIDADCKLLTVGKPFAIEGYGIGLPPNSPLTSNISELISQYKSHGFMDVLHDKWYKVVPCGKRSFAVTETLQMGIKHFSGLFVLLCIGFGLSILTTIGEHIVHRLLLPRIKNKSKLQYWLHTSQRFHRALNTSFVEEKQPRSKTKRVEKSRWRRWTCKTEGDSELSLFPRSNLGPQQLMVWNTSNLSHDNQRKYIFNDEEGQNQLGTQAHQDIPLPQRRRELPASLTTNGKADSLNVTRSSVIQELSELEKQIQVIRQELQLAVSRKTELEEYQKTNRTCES
smiles,measurement,setting,value
"CC(=O)[C@H]1CC[C@H]2[C@@H]3CC[C@@H]4C[C@H](OS(=O)(=O)O)CC[C@]4(C)[C@H]3CC[C@]12C [PA-S, 20-oxo-5β-pregnan-3α-yl sulfate]",onset of response to glycine Af,GluN1/GluN2B receptors,84 ± 5%
same,onset of response to glycine τf,GluN1/GluN2B receptors,29 ± 3 ms
same,onset of response to glycine τs,GluN1/GluN2B receptors,280 ± 72 ms
same,onset of inhibition Af,GluN1/GluN2B receptors; [3],75 ± 3%
same,onset of inhibition τf,GluN1/GluN2B receptors; [3],30 ± 2 ms
same,onset of inhibition τs,GluN1/GluN2B receptors; [3],579 ± 92 ms
same,recovery from inhibition (offset) τs,"GluN1/GluN2B receptors; 150 μM PA-S, 1 mM glutamate, 10 μM glycine, attached HEK293 cells",536 ± 79 ms
same,intercept of linear fit of mean inhibition versus holding potential,"GluN1/GluN2B receptors; PA-S 200 µM, 1 mM glutamate, WT",85.2
same,voltage dependence of steroid inhibition,GluN1/GluN2B receptors; WT GluN1/GluN2B,voltage independent
same,mode of inhibition,GluN1/GluN2B receptors; dependence on receptor activation by agonists,use-dependent
same,time constant of the slow rate of recovery from inhibition,GluN1/GluN2B receptors; glutamate and steroid co-application for 30 s,902 ± 201 ms
same,onset of the response to glutamate application (10–90%),GluN1/GluN2B receptors; immediately after 30 s PA-S (150 μM) pre-application in the absence of glutamate,18.4 ± 1.6 ms
same,onset of inhibition As,GluN1/GluN2B receptors; [4],20 ± 4%
same,onset of inhibition τf,GluN1/GluN2B receptors; [4],10.8 ± 2.2 ms
same,onset of inhibition τs,GluN1/GluN2B receptors; [4],480 ± 108 ms
same,off rate As,GluN1/GluN2B receptors; [5],65% and 41 ± 6%
same,off rate τf,GluN1/GluN2B receptors; [5],16 ms and 14.3 ± 1.7 ms
same,off rate τs,GluN1/GluN2B receptors; [5],367 ms and 311 ± 70 ms
same,"degree of PA-S inhibition, mutated vs WT GluN1-4a subunit in combination with GluN3A",[1],no significant difference
same,IC50,"[1]; glycine-activated, PA-S 50 µM",27 ± 3 µM
same,IC50,GluN1ΔC/GluN2BΔC,34 ± 3 µM
same,IC50,[2],758 ± 27 µM
same,voltage dependence of steroid inhibition,[2],voltage independent
same,inhibition at 200 µM,[2]; read-out: degree of inhibition of agonist-evoked currents,13.6 ± 0.9%
same,inhibition at 200 µM,[2]; read-out: degree of inhibition of spontaneous currents,13.8 ± 0.7%
same,intercept of linear fit of mean inhibition versus holding potential,"[2]; PA-S 200 µM, 1 mM glutamate",15.8
same,IC50,GluN2B(Y646A),4.3 ± 0.7 µM
